# Entries after “also recorded” stand apart in the source; their conditions may differ.
# Tests used:
# [1] = tested on: embryonic zebrafish; assay: Blinded re-screen of top 10 prioritized ChemBridge compounds for developmental phenotypes in embryonic zebrafish; format: in vivo; conditions: for Phenotype Observed: embryonic zebrafish, 10 uM introduced at 5 hpf, scored at 24 and 48 hpf, blinded, in duplicate
# Description: Male and female wild-type (AB) fish were housed and embryos bred for screening using standard protocols. […] 10 mM compound stocks were diluted to 2 mM using DMSO, and 1 μL of each diluted compound solution was introduced into individual wells at 5 hours post fertilization (hpf) using a manual multichannel pipettor (10 uM final concentration). The first and last column of each plate received only DMSO, serving as negative control wells.
# Embryos were screened for a series of developmental phenotypes at both 24 and 48 hpf using standard light microscopy. […] Only those wells where at least two of the three embryos were dead or delayed were annotated as a hit for 24 hour death or delay/arrest, respectively.
# Resulting scores for each phenotype were used to rank the over 900,000 compounds. Enrichment for compounds with high (>0.95) similarity to known therapeutics (defined using Tanimoto Coefficient of molecular fingerprints) was calculated for each of the 6 ranked lists using gene set enrichment analysis^69. The top 10 highest-ranking compounds from each of the 6 lists were screened as described above, blinded and in duplicate.
# [2] = tested on: zebrafish embryos; assay: Rescue of developmental delay/arrest phenotype by phospholipase products; format: in vivo; conditions: for rescue of the developmental delay/arrest phenotype of DA5: zebrafish embryos treated with DA5
# From the text: FIG. 15 (A)-(B): Effect of timing and injection on DA5 rescue. Rescue of the DA5 phenotype was compared using introduction of phosphatidic acid (PAC) in-well, versus injected into the embryo at the 1-cell developmental stage (A; DA5 introduced at 5 hpf).
# Given the known role of anoxia in cancer cell proliferation, we investigated the potential of the DA compounds to inhibit cancer cell growth in cell culture. We found a significant reduction in the proliferation of immortalized cells upon introduction of all DA compounds (FIG. 16).
compound,measurement,setting,value
COc1ccccc1Nc1nc(-c2ccncc2)cs1 [ChemBridge ID 5745969],Hit (predicted phenotype observed),[1]; Prediction: Dead,No
same,Phenotype Observed,[1],Multiple severe phenotypes
Br.COc1ccccc1Nc1nc(-c2sc(C)nc2C)cs1 [ChemBridge ID 5931065],Hit (predicted phenotype observed),[1]; Prediction: Dead,Yes
same,Phenotype Observed,[1],Dead (48 h)
CC(NCc1ccccc1O)C12CC3CC(CC(C3)C1)C2 (stereo not drawn) [ChemBridge ID 6108849],Hit (predicted phenotype observed),[1]; Prediction: Pigmentation,Yes
same,Hit (predicted phenotype observed),[1]; Prediction: Pigmentation Only,Yes
same,Phenotype Observed,[1],"No pigmentation, dying"
O=C(Nc1ccccc1Cl)N1CCN(c2ccccc2F)CC1 [ChemBridge ID 7008803],Hit (predicted phenotype observed),[1]; Prediction: Cranial Edema,No
same,Phenotype Observed,[1],slight discoloration
COCC1CCN(C(=O)c2cc(COc3ccc4ncccc4c3)on2)CC1 [ChemBridge ID 13197878],Hit (predicted phenotype observed),[1]; Prediction: Delay/Arrest,Yes
same,Phenotype Observed,[1],"Bud stage at 24 h, dead at 48 h"
CCOC(=O)C1(CCc2ccccc2)CCCN(Cc2nccn2CC)C1 (stereo not drawn) [ChemBridge ID 13300080],Hit (predicted phenotype observed),[1]; Prediction: Pigmentation,Yes
same,Hit (predicted phenotype observed),[1]; Prediction: Pigmentation Only,Yes
same,Phenotype Observed,[1],"No pigmentation, dying; also recorded: No pigmentation, slow heart beat"
CN(CC1CCN(CCc2ccc(Cl)cc2)CC1)C(=O)c1ccccc1-n1cccn1 [ChemBridge ID 18069546],Hit (predicted phenotype observed),[1]; Prediction: Cardiac,Yes
same,Phenotype Observed,[1],"Pericardial edema, no heart beat"
COC(=O)c1ccc(-c2noc(CN(Cc3ccncc3)CC3CCCO3)n2)cc1 (stereo not drawn) [ChemBridge ID 18809966],Hit (predicted phenotype observed),[1]; Prediction: Body Axis,Yes
same,Phenotype Observed,[1],Small body (appear dorsalized)
O=C(c1cc(COc2ccc3ncccc3c2)on1)N1C[C@@H]2C[C@H]3C[C@@H](C2)C[C@@H]1C3 [ChemBridge ID 19759648],Hit (predicted phenotype observed),[1]; Prediction: Delay/Arrest,Yes
same,Phenotype Observed,[1],"Bud stage at 24 h, dead at 48 h"
COC(=O)c1ccc(-c2nc(CN3CCCCC3c3cccc(OC)c3)c(C)o2)cc1 (stereo not drawn) [ChemBridge ID 20494296],Hit (predicted phenotype observed),[1]; Prediction: Body Axis,Yes
same,Phenotype Observed,[1],"Short, no heads"
O=C(c1cc(COc2ccc3ncccc3c2)on1)N1CCCC(OCc2ccccn2)C1 (stereo not drawn) [ChemBridge ID 21652166],Hit (predicted phenotype observed),[1]; Prediction: Delay/Arrest,Yes
same,Phenotype Observed,[1],5-10 somite stage at 48 h
COC(=O)c1ccc(-c2nc(CN3CCCCC3c3nc4cc(F)ccc4[nH]3)c(C)o2)cc1 (stereo not drawn) [ChemBridge ID 22685803],Hit (predicted phenotype observed),[1]; Prediction: Body Axis,Yes
same,Phenotype Observed,[1],"Most dead, remaining have small bodies"
CCOC(=O)C1(CCOc2ccccc2)CCN(Cc2cc(OC)cc(OC)c2)CC1 [ChemBridge ID 23490385],Hit (predicted phenotype observed),[1]; Prediction: Cardiac,Yes
same,Hit (predicted phenotype observed),[1]; Prediction: Cranial Edema,No
same,Phenotype Observed,[1],"Pericardial edema, no heart beat"
CSc1ccc(-c2nc(CN3CCCCC3c3nccn3C)c(C)o2)cc1 (stereo not drawn) [ChemBridge ID 23702187],Hit (predicted phenotype observed),[1]; Prediction: Pigmentation,Yes
same,Phenotype Observed,[1],"No pigmentation, cranial edema, slow heart beat"
CN(CC1CCN(CCc2ccc(F)cc2)CC1)C(=O)c1ccsc1 [ChemBridge ID 26410496],Hit (predicted phenotype observed),[1]; Prediction: Cardiac,Yes
same,Phenotype Observed,[1],"Pericardial edema, no heart beat"
COC(=O)c1ccc(-c2nc(CN(C)C(C)c3nc(C)cs3)c(C)o2)cc1 (stereo not drawn) [ChemBridge ID 34105851],Hit (predicted phenotype observed),[1]; Prediction: Body Axis,Yes
same,Phenotype Observed,[1],Small body (no head)
OCCC1CN(Cc2ccc(F)cc2F)CCN1CCCc1ccccc1 (stereo not drawn) [ChemBridge ID 35983174],Hit (predicted phenotype observed),[1]; Prediction: Cardiac,Yes
same,Hit (predicted phenotype observed),[1]; Prediction: Cardiac Only,Yes
same,Phenotype Observed,[1],"Pericardial edema, no heart beat"
CN(CC1CCN(CCc2ccc(Cl)cc2)CC1)C(=O)C1=CCCCC1 [ChemBridge ID 37690524],Hit (predicted phenotype observed),[1]; Prediction: Cardiac,Yes
same,Phenotype Observed,[1],"Pericardial edema, no heart beat"
CCOC(=O)C1(Cc2cccc(OC)c2)CCCN(Cc2nccn2CC)C1 (stereo not drawn) [ChemBridge ID 38433186],Hit (predicted phenotype observed),[1]; Prediction: Pigmentation,Yes
same,Hit (predicted phenotype observed),[1]; Prediction: Pigmentation Only,Yes
same,Phenotype Observed,[1],No pigmentation
CCOC(=O)C1(CCOc2ccccc2)CCN(Cc2ccc(OC)cc2)CC1 [ChemBridge ID 38617825],Hit (predicted phenotype observed),[1]; Prediction: Cardiac,No
same,Phenotype Observed,[1],Dead (48 h)
CN(CC1CCN(CCc2ccc(Cl)cc2)CC1)C(=O)c1cccc(N(C)C)c1 [ChemBridge ID 39911836],Hit (predicted phenotype observed),[1]; Prediction: Cardiac,Yes
same,Phenotype Observed,[1],"Pericardial edema, no heart beat"
C[C@@H]1CN(C(=O)c2cc(COc3ccc4ncccc4c3)on2)C[C@H](C)O1 [ChemBridge ID 44889923],Hit (predicted phenotype observed),[1]; Prediction: Delay/Arrest,Yes
same,Phenotype Observed,[1],Look 24 h at 48 h
O=C(c1cc(COc2ccc3ncccc3c2)on1)N1CCC(N2CCSCC2)CC1 [ChemBridge ID 45187255],Hit (predicted phenotype observed),[1]; Prediction: Delay/Arrest,Yes
same,Phenotype Observed,[1],"Bud stage at 24 h, 5-18 somites at 48 h"
O=C(c1cc(COc2ccc3ncccc3c2)on1)N1C[C@H]2CCC[C@H]1C2 [ChemBridge ID 54305680],Hit (predicted phenotype observed),[1]; Prediction: Delay/Arrest,Yes
same,Phenotype Observed,[1],"Bud stage at 24 h, dead at 48 h"
COC(=O)c1ccc(-c2noc(CN(CCO)Cc3cccs3)n2)cc1 [ChemBridge ID 56638922],Hit (predicted phenotype observed),[1]; Prediction: Body Axis,Yes
same,Phenotype Observed,[1],"Small heads, short bodies"
CN(CC1CCN(CCc2ccc(Cl)cc2)CC1)C(=O)c1ccsc1 [ChemBridge ID 59314184],Hit (predicted phenotype observed),[1]; Prediction: Cardiac,Yes
same,Phenotype Observed,[1],"Pericardial edema, no heart beat"
CCOC(=O)C1(C/C=C/c2ccccc2)CCCN(Cc2nccn2CC)C1 (stereo not drawn) [ChemBridge ID 69904708],Hit (predicted phenotype observed),[1]; Prediction: Pigmentation,Yes
same,Hit (predicted phenotype observed),[1]; Prediction: Pigmentation Only,Yes
same,Phenotype Observed,[1],"No pigmentation, cranial edema, slow heart beat"
COC(=O)c1ccc(-c2noc(CN(CCO)Cc3ccccc3)n2)cc1 [ChemBridge ID 86606851],Hit (predicted phenotype observed),[1]; Prediction: Body Axis,Yes
same,Phenotype Observed,[1],"Some dead, alive have no head, necrotic"
CCOC(=O)C1(CCOc2ccccc2)CCN(Cc2ccccc2OC)CC1 [ChemBridge ID 87194463],Hit (predicted phenotype observed),[1]; Prediction: Cardiac,No
same,Phenotype Observed,[1],Dead (48 h)
Cc1oc(-c2cccc(C(F)(F)F)c2)nc1CN1CCCCC1c1nccn1C (stereo not drawn) [ChemBridge ID 91866361],Hit (predicted phenotype observed),[1]; Prediction: Pigmentation,Yes
same,Phenotype Observed,[1],"No pigmentation, cranial edema, slow heart beat"
CCOC(=O)C1(Cc2ccccc2)CCCN(Cc2nccn2CC)C1 (stereo not drawn) [ChemBridge ID 98334673],Hit (predicted phenotype observed),[1]; Prediction: Pigmentation,Yes
same,Hit (predicted phenotype observed),[1]; Prediction: Pigmentation Only,Yes
same,Phenotype Observed,[1],"No pigmentation, cranial edema"
"O=P(O)(O)O[C@@H]1[C@H](O)[C@H](O)[C@@H](OP(=O)(O)O)[C@H](OP(=O)(O)O)[C@H]1O [D-myo-Inositol-1,4,5-triphosphate]",rescue of the developmental delay/arrest phenotype of DA5,[2],did not observe rescue
Phosphatidic acid,rescue of the DA5 phenotype,"[2]; DA5 introduced at 5 hpf, PAC in-well at 24 hpf, phenotypes surveyed at 36 hpf",rescue still observed
same,rescue of the DA5 phenotype,"[2]; upon injection and introduction into embryonic medium, multiple time points after DA5",rescued
same,rescue of the developmental delay/arrest phenotype of DA5,[2],rescued
same,rescue of the developmental delay/arrest phenotype of DA5,[2]; listed as phosphatidic acid,rescue
same,rescue of the phenotype of oligomycin A,[2]; zebrafish embryos treated with oligomycin A,did not rescue

# Reference: US12605374B2, “Methods for drug screening and compositions useful for the inhibition of cell proliferation and/or cell survival” (The Brigham and Women's Hospital, Inc., priority 2019, dated 2026)
